Reference: patent US10738101B2, “Method for selecting odor-controlling substance” (Kao Corporation, priority 2015, dated 2020)

Tested on: odor of guaiacol
Assay: Sensory test of cross-adaptation, target odor guaiacol
Format: in vivo, human
Conditions: panelists, test sample smelled before target sample, FIG. 6B
Description: The cross-adaptation effect induced by the odorous substance evaluated in Example 2 was estimated by a sensory test. A glass bottle (No. 11, manufactured by Hakuyo Glass Co., Ltd., capacity: 110 mL) was charged with a target odorous substance to be used as a target sample. As the target odorous substance, muscone, guaiacol or p-cresol was used. As the muscone, a cotton ball soaked with 1 mg of muscone was used. As the guaiacol and p-cresol, 1 mL of a mineral oil (Sigma-Aldrich) solution in a concentration of 10 ppm was used. In a similar manner, a glass bottle was charged with a test substance to be used as a test sample. As the test sample, 5 mg of an ethyl vanillin powder, or 1 mL of a mineral oil (Sigma-Aldrich) solution of p-cresyl acetate, p-cresyl isobutyrate or p-methyl quinoline prepared to a concentration of 1,000 ppm was used.
The sensory test was performed by a single blind method by five to eight panelists. The target sample was first presented to each panelist, who was caused to replay on the odor intensity. Next, the test sample was presented for 2 minutes or until the odor could not be perceived. Thereafter, the target sample was presented again, and the panelist was caused to replay on the odor intensity. This series of operations was defined as one set, and the sensory test was carried out with four sets per day per panelist set as the upper limit. […]

C[C@@H]1CCCCCCCCCCCCC(=O)C1 [muscone, (R)-3-methyl-1-cyclopentadecanone]
cross-adaptation of guaiacol odor induced by test substance: not induced
